Results: ChEMBL document CHEMBL1144624, “1,2,3-Triazolylalkylribitol derivatives as nucleoside hydrolase inhibitors” (Bioorg Med Chem Lett, 2007)

Target: T1, IAG-nucleoside hydrolase (Trypanosoma vivax, UniProt Q9GPQ4)
T1 sequence (Q9GPQ4 whole entry): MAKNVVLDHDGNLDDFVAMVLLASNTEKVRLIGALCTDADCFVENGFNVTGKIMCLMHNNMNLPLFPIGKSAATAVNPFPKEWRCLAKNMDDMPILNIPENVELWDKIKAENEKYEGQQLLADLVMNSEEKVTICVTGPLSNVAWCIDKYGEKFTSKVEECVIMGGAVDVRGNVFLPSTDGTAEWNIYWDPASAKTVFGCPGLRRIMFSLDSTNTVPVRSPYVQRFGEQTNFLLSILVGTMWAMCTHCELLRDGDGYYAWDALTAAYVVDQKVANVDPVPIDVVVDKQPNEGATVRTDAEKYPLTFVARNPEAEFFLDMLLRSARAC
Experiment: Inhibition of Trypanosoma vivax IAG-nucleoside hydrolase

SMILES | Ki
Cc1c(-c2ccccc2)nnn1C[C@@H]1O[C@H](CO)[C@@H](O)[C@H]1O | 87 µM
Cc1nnn(C[C@@H]2O[C@H](CO)[C@@H](O)[C@H]2O)c1-c1ccccc1 | 520 µM
[N-]=[N+]=NCC[C@@H]1O[C@H](CO)[C@@H](O)[C@H]1O | 5600 µM
OC[C@H]1O[C@@H](CCn2nncc2-c2ccccc2)[C@H](O)[C@@H]1O | 680 µM

Molecules with a lower Ki, results first:

Ki | SMILES
21 µM | OC[C@H]1O[C@@H](CCn2cc(-c3ccccc3)nn2)[C@H](O)[C@@H]1O
32 µM | Cc1nnn(CC[C@@H]2O[C@H](CO)[C@@H](O)[C@H]2O)c1-c1ccccc1
63 µM | CCc1nnn(CC[C@@H]2O[C@H](CO)[C@@H](O)[C@H]2O)c1CC
2.3 µM | Cc1c(-c2ccccc2)nnn1CC[C@@H]1O[C@H](CO)[C@@H](O)[C@H]1O
23 µM | OC[C@H]1O[C@@H](CCn2cc(-c3ccccn3)nn2)[C@H](O)[C@@H]1O
